Experimental data published in patent US11319299B2, “Substituted carboxamides as inhibitors of WDR5 protein-protein binding” (PROPELLON THERAPEUTICS INC., priority 2016, dated 2022).

What follows are compounds tested against WDR5 (Homo sapiens (Human), UniProt P61964) (assay: Surface Plasmon Resonance (SPR) assay, KD and residence time). Settings: surface plasmon resonance (SPR) assay; read-out: WDR5 binding affinity (KD).
Type: binding
Protocol: (i) Surface Plasmon Resonance (SPR) Assay
The lifetime of a drug on its target is determined by two rate constants: the association rate constant (kon) and the dissociation rate constant (koff). In principle, the lifetime of the binary drug—target complex is thus extended by a rapid rate of drug binding and/or a slow rate of drug—target complex dissociation. The in vivo lifetime of a drug-target complex is most critically dependent on the value of the koff [Nat. Rev. Drug Discov. […] Drug Discov. […] Drug-target residence time is defined as the reciprocal of koff (τ=1/koff), making the residence time a parameter that is easily measured by routine in vitro assay methods.

Row | SMILES | Kd [nM]
1 | COc1cc(-c2cc(NC(=O)c3c[nH]c(=O)cc3C(F)(F)F)c(N3C[C@@H](C)N(C)[C@@H](C)C3)cc2F)cc(C)n1 [Example 135, N-[4-fluoro-5-(2-methoxy-6-methylpyridin-4-yl)-2-[(3R,5S)-3,4,5-trimethylpiperazin-1-yl]phenyl]-6-oxo-4-(trifluoromethyl)-1H-pyridine-3-carboxamide] | 2.81
2 | CC(C)Oc1ncc(-c2cc(NC(=O)c3c[nH]c(=O)cc3C(F)(F)F)c(N3C[C@@H](C)N(C)[C@@H](C)C3)cc2F)cn1 [Example 130, N-[4-fluoro-5-(2-propan-2-yloxypyrimidin-5-yl)-2-[(3R,5S)-3,4,5-trimethylpiperazin-1-yl]phenyl]-6-oxo-4-(trifluoromethyl)-1H-pyridine-3-carboxamide] | 0.656
3 | C[C@@H]1CN(c2cc(F)c(-c3cncc(C(=O)NC(C)(C)C)c3)cc2NC(=O)c2c[nH]c(=O)cc2C(F)(F)F)C[C@H](C)N1C [Example 174, N-[5-[5-(tert-butylcarbamoyl)pyridin-3-yl]-4-fluoro-2-[(3R,5S)-3,4,5-trimethylpiperazin-1-yl]phenyl]-6-oxo-4-(trifluoromethyl)-1H-pyridine-3-carboxamide] | 1.53
4 | C[C@@H]1CN(c2cc(F)c(-c3cnc(N4CCOCC4)nc3)cc2NC(=O)c2n[nH]c(=O)cc2C(F)(F)F)C[C@H](C)N1C [Example 77, N-[4-fluoro-5-(2-morpholin-4-ylpyrimidin-5-yl)-2-[(3R,5S)-3,4,5-trimethylpiperazin-1-yl]phenyl]-6-oxo-4-(trifluoromethyl)-1H-pyridazine-3-carboxamide] | 4.43
5 | C[C@@H]1CN(c2cc(F)c(C3=CCOCC3)cc2NC(=O)c2c[nH]c(=O)cc2C(F)(F)F)C[C@H](C)N1C [Example 94, N-[5-(3,6-dihydro-2H-pyran-4-yl)-4-fluoro-2-[(3R,5S)-3,4,5-trimethylpiperazin-1-yl]phenyl]-6-oxo-4-(trifluoromethyl)-1H-pyridine-3-carboxamide] | 4.06
6 | CN(C)[C@@H]1CCN(c2cc(F)c(-c3ccc(O)nc3)cc2NC(=O)c2c[nH]c(=O)cc2C(F)(F)F)C1 [Example 237, N-[4-fluoro-5-(6-hydroxypyridin-3-yl)-2-[(3R)-3-(dimethylamino)pyrrolidin-1-yl]phenyl]-6-oxo-4-(trifluoromethyl)-1H-pyridine-3-carboxamide] | 9.33
7 | C[C@@H]1CN(c2cc(F)c(C3=CC4CCC(C3)N4c3ncccn3)cc2NC(=O)c2c[nH]c(=O)cc2C(F)(F)F)C[C@H](C)N1C (stereo partly drawn) [Example 336, N-[4-fluoro-5-(8-pyrimidin-2-yl-8-azabicyclo[3.2.1]oct-2-en-3-yl)-2-[(3R,5S)-3,4,5-trimethylpiperazin-1-yl]phenyl]-6-oxo-4-(trifluoromethyl)-1H-pyridine-3-carboxamide] | 12.5
8 | C[C@@H]1CN(c2cc(F)c(-c3ccc(O)nc3)cc2NC(=O)c2c[nH]c(=O)cc2C(F)(F)F)C[C@H](C)N1C [Example 157, N-[4-fluoro-5-(6-hydroxypyridin-3-yl)-2-[(3R,5S)-3,4,5-trimethylpiperazin-1-yl]phenyl]-6-oxo-4-(trifluoromethyl)-1H-pyridine-3-carboxamide] | 2.16
9 | CC1CN(c2cc(F)c(-c3cnc(N4CCOCC4)nc3)cc2NC(=O)c2ccccc2)CCN1C (stereo in doubt) [Example 78, N-[4-fluoro-5-(2-morpholin-4-ylpyrimidin-5-yl)-2-[(3R)-3,4-dimethylpiperazin-1-yl]phenyl]benzamide] | 17.9
10 | C[C@@H]1CN(c2cc(F)c(-c3cnc(N4CCOCC4)nc3)cc2NC(=O)c2ccccc2C(F)(F)F)C[C@H](C)N1C [Example 141, N-[4-fluoro-5-(2-morpholin-4-ylpyrimidin-5-yl)-2-[(3R,5S)-3,4,5-trimethylpiperazin-1-yl]phenyl]-2-(trifluoromethyl)benzamide] | 16.2
11 | C[C@@H]1CN(c2cc(F)c(-c3cccnc3OC3CCCCC3)cc2NC(=O)c2c[nH]c(=O)cc2C(F)(F)F)C[C@H](C)N1C [Example 207, N-[5-(2-cyclohexyloxypyridin-3-yl)-4-fluoro-2-[(3R,5S)-3,4,5-trimethylpiperazin-1-yl]phenyl]-6-oxo-4-(trifluoromethyl)-1H-pyridine-3-carboxamide] | 6.69
12 | C[C@@H]1CN(c2cc(F)c(-c3cnc(N4C5CCC4CC5)nc3)cc2NC(=O)c2c[nH]c(=O)cc2C(F)(F)F)C[C@H](C)N1C [Example 352, N-[5-[2-(7-azabicyclo[2.2.1]heptan-7-yl)pyrimidin-5-yl]-4-fluoro-2-[(3R,5S)-3,4,5-trimethylpiperazin-1-yl]phenyl]-6-oxo-4-(trifluoromethyl)-1H-pyridine-3-carboxamide] | 2.73

More lines, now with the values ahead:

Row | Kd [nM] | SMILES
13 | 2.61 | C[C@@H]1CN(c2cc(F)c(C3=CCN(C(=O)CN(C)C)CC3)cc2NC(=O)c2c[nH]c(=O)cc2C(F)(F)F)C[C@H](C)N1C [Example 305, N-[5-[1-[2-(dimethylamino)acetyl]-3,6-dihydro-2H-pyridin-4-yl]-4-fluoro-2-[(3R,5S)-3,4,5-trimethylpiperazin-1-yl]phenyl]-6-oxo-4-(trifluoromethyl)-1H-pyridine-3-carboxamide]
14 | 0.246 | COc1cc(N2CCC=C(c3cc(NC(=O)c4c[nH]c(=O)cc4C(F)(F)F)c(N4C[C@@H](C)N(C)[C@@H](C)C4)cc3F)C2)ncn1 [Example 365, N-[4-fluoro-5-[1-(6-methoxypyrimidin-4-yl)-3,6-dihydro-2H-pyridin-5-yl]-2-[(3R,5S)-3,4,5-trimethylpiperazin-1-yl]phenyl]-6-oxo-4-(trifluoromethyl)-1H-pyridine-3-carboxamide]
15 | 0.866 | CC1CN(c2cc(F)c(-c3cnc(N(C)C4CCOCC4)nc3)cc2NC(=O)c2c[nH]c(=O)cc2C(F)(F)F)CCN1C (stereo in doubt) [Example 370, N-[4-fluoro-5-[2-[methyl(oxan-4-yl)amino]pyrimidin-5-yl]-2-[(3R)-3,4-dimethylpiperazin-1-yl]phenyl]-6-oxo-4-(trifluoromethyl)-1H-pyridine-3-carboxamide]
16 | 1.39 | C[C@@H]1CN(c2cc(F)c(C3=CCN(C(=O)N4CCN(C)CC4)CC3)cc2NC(=O)c2c[nH]c(=O)cc2C(F)(F)F)C[C@H](C)N1C [Example 287, N-[4-fluoro-5-[1-(4-methylpiperazine-1-carbonyl)-3,6-dihydro-2H-pyridin-4-yl]-2-[(3R,5S)-3,4,5-trimethylpiperazin-1-yl]phenyl]-6-oxo-4-(trifluoromethyl)-1H-pyridine-3-carboxamide]

Same assay, conditions: surface plasmon resonance (SPR); read-out: WDR5 binding affinity (KD)

Row | Kd [nM] | SMILES
17 | 58.2 | C[C@@H]1CN(c2cc(F)c(-c3ccc4c(c3)ncn4C)cc2NC(=O)c2cn(C)c(=O)cc2C(F)F)C[C@H](C)N1C [Example 680, 4-(difluoromethyl)-N-[4-fluoro-5-(1-methylbenzimidazol-5-yl)-2-[(3R,5S)-3,4,5-trimethylpiperazin-1-yl]phenyl]-1-methyl-6-oxopyridine-3-carboxamide]
18 | 4.69 | CC1CN(c2cc(F)c(-c3cc(F)c(C(N)=O)c(F)c3)cc2NC(=O)c2ccc(F)cc2C(F)(F)F)CCN1C (stereo in doubt) [Example 657, 2,6-difluoro-4-[2-fluoro-5-[[4-fluoro-2-(trifluoromethyl)benzoyl]amino]-4-[(3R)-3,4-dimethylpiperazin-1-yl]phenyl]benzamide]
19 | 1.99 | C[C@@H]1CN(c2cc(F)c(C3=CCN(C(=O)C4CCCCC4)CC3)cc2NC(=O)c2c[nH]c(=O)cc2C(F)(F)F)C[C@H](C)N1C [Example 569, N-[5-[1-(cyclohexanecarbonyl)-3,6-dihydro-2H-pyridin-4-yl]-4-fluoro-2-[(3R,5S)-3,4,5-trimethylpiperazin-1-yl]phenyl]-6-oxo-4-(trifluoromethyl)-1H-pyridine-3-carboxamide]
20 | 2.94 | CC1CN(c2cc(F)c(-c3ccc(C(N)=O)c(F)c3)cc2NC(=O)c2ccc(F)cc2C(F)(F)F)CCN1C (stereo in doubt) [Example 555, 2-fluoro-4-[2-fluoro-5-[[4-fluoro-2-(trifluoromethyl)benzoyl]amino]-4-[(3R)-3,4-dimethylpiperazin-1-yl]phenyl]benzamide]
21 | 2.28 | CC(C)N1CCN(c2ncc(-c3cc(NC(=O)c4ccc(F)cc4C(F)(F)F)c(N4C[C@@H](C)N(C)[C@@H](C)C4)cc3F)cn2)CC1 [Example 466, 4-fluoro-N-[4-fluoro-5-[2-(4-propan-2-ylpiperazin-1-yl)pyrimidin-5-yl]-2-[(3R,5S)-3,4,5-trimethylpiperazin-1-yl]phenyl]-2-(trifluoromethyl)benzamide]
22 | 4.19 | CC1CN(c2cc(F)c(-c3csc(N4CCOCC4)n3)cc2NC(=O)c2cn(C)c(=O)cc2C(F)F)CCN1C (stereo in doubt) [Example 620, 4-(difluoromethyl)-N-[4-fluoro-5-(2-morpholin-4-yl-1,3-thiazol-4-yl)-2-[(3R)-3,4-dimethylpiperazin-1-yl]phenyl]-1-methyl-6-oxopyridine-3-carboxamide]
23 | 4.58 | C[C@@H]1CN(c2cc(F)c(-c3ccnc(S(C)(=O)=O)n3)cc2NC(=O)c2c[nH]c(=O)cc2C(F)(F)F)C[C@H](C)N1C [Example 399, N-[4-fluoro-5-(2-methylsulfonylpyrimidin-4-yl)-2-[(3R,5S)-3,4,5-trimethylpiperazin-1-yl]phenyl]-6-oxo-4-(trifluoromethyl)-1H-pyridine-3-carboxamide]
24 | 5.15 | C[C@@H]1CN(c2cc(F)c(-c3csc(N4CCOCC4)n3)cc2NC(=O)c2cn(C)c(=O)cc2C(F)F)C[C@H](C)N1C [Example 622, 4-(difluoromethyl)-N-[4-fluoro-5-(2-morpholin-4-yl-1,3-thiazol-4-yl)-2-[(3R,5S)-3,4,5-trimethylpiperazin-1-yl]phenyl]-1-methyl-6-oxopyridine-3-carboxamide]
